For this assay, the target named is HDM2 protein (Homo sapiens, UniProt Q00987). The assay can be described thus: fluorescence polarization screening assay (FP IC50). In kind it is binding. The following applies: class symbols. The protocol: The compounds were evaluated to determine activity at the HDM2 protein by known methods such as the fluorescence polarization screening assay that measures the inhibitory concentration that achieves 50% of maximal activity (FP IC50) and the dissociation constant for inhibitor binding (FP Ki). [Zhang et al., J. Analytical Biochemistry 331: 138-146 (2004)].
HDM2 protein, sequence (Q00987 whole entry): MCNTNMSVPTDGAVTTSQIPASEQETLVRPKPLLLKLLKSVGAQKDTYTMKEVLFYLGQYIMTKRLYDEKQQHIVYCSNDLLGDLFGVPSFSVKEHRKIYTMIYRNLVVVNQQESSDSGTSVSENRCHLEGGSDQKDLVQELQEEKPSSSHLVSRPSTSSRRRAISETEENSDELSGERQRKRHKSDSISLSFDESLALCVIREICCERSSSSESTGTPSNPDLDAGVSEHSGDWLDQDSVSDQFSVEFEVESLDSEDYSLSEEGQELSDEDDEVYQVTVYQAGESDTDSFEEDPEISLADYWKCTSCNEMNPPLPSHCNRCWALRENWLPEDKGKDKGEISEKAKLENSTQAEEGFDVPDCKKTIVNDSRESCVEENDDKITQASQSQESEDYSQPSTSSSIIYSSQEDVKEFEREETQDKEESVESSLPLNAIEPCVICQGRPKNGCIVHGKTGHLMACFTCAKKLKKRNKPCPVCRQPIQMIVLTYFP

The structures appear in SMILES notation.

The term IC50 denotes the concentration needed to halve the response being measured. Low readings indicate inhibition by little substance, high ones a need for much substance.

Turning to `CCC[C@H]1N(C(=O)c2ncccc2C(F)(F)F)CCC[C@@]1(Oc1csc(C(F)(F)F)c1)C(=O)N1CCc2cc(Cl)ccc2C1C(N)=O` (stereo partly drawn) [Compound A75, 6-chloro-2-{[(2R,3S)-2-propyl-1-{[3-(trifluoromethyl)pyridin-2-yl]carbonyl}-3-{[5-(trifluoromethyl)thiophen-3-yl]oxy}piperidin-3-yl]carbonyl}-1,2,3,4-tetrahydroisoquinoline-1-carboxamide], the IC50 is 1 to 100 nM.

Take `CCC[C@H]1N(C(=O)c2ncccc2C(F)(F)F)CCC[C@@]1(Oc1csc(C(F)(F)F)c1)C(=O)N1CCc2cc(Cl)ccc2C1C#N` (stereo partly drawn) [Compound A76, 6-chloro-2-{[(2R,3S)-2-propyl-1-{[3-(trifluoromethyl)pyridin-2-yl]carbonyl}-3-{[5-(trifluoromethyl)thiophen-3-yl]oxy}piperidin-3-yl]carbonyl}-1,2,3,4-tetrahydroisoquinoline-1-carbonitrile]: the IC50 fell in the range of 101 to 20000 nM.

For `CCC[C@H]1N(C(=O)c2ncccc2C(F)(F)F)CCC[C@@]1(Oc1csc(C(F)(F)F)c1)C(=O)N1CCc2cc(Cl)ccc2C1C(N)=O` (stereo partly drawn) [Compound A77, 6-chloro-2-{[(2R,3S)-2-propyl-1-{[3-(trifluoromethyl)pyridin-2-yl]carbonyl}-3-{[5-(trifluoromethyl)thiophen-3-yl]oxy}piperidin-3-yl]carbonyl}-1,2,3,4-tetrahydroisoquinoline-1-carboxamide], the IC50 was 1 to 100 nM.

The molecule `CCC[C@H]1N(C(=O)c2ncccc2C(F)(F)F)CCC[C@@]1(Oc1csc(C(F)(F)F)c1)C(=O)N1CCc2cc(Cl)ccc2C1C#N` (stereo partly drawn) [Compound A78, 6-chloro-2-{[(2R,3S)-2-propyl-1-{[3-(trifluoromethyl)pyridin-2-yl]carbonyl}-3-{[5-(trifluoromethyl)thiophen-3-yl]oxy}piperidin-3-yl]carbonyl}-1,2,3,4-tetrahydroisoquinoline-1-carbonitrile] yielded a 50% inhibitory concentration (IC50) of 101 to 20000 nM.

Molecule `CCC[C@H]1N(C(=O)c2ncccc2C(F)(F)F)CCC[C@@]1(Oc1csc(C(F)(F)F)c1)C(=O)N1CCc2cc(Cl)ccc2[C@H]1CCC(=O)NC#N` [Compound A79, 3-[(1R)-6-chloro-2-{[(2R,3S)-2-propyl-1-{[3-(trifluoromethyl)pyridin-2-yl]carbonyl}-3-{[5-(trifluoromethyl)thiophen-3-yl]oxy}piperidin-3-yl]carbonyl}-1,2,3,4-tetrahydroisoquinolin-1-yl]-N-cyanopropanamide] registered an IC50 of 1 to 100 nM.

`CCC[C@H]1N(C(=O)c2ncccc2C(F)(F)F)CCC[C@@]1(Oc1csc(C(F)(F)F)c1)C(=O)N1CCc2cc(Cl)ccc2[C@@H]1CCC(=O)NC#N` [Compound A80, 3-[(1S)-6-chloro-2-{[(2R,3S)-2-propyl-1-{[3-(trifluoromethyl)pyridin-2-yl]carbonyl}-3-{[5-(trifluoromethyl)thiophen-3-yl]oxy}piperidin-3-yl]carbonyl}-1,2,3,4-tetrahydroisoquinolin-1-yl]-N-cyanopropanamide] returned a half-inhibitory concentration (IC50) of 1 to 100 nM.

In turn, `CCC[C@H]1N(C(=O)c2ncccc2C(F)(F)F)CCC[C@@]1(Oc1csc(C(F)(F)F)c1)C(=O)N1CCc2cc(Cl)ccc2C1CC(=O)N1CCNC(=O)C1` (stereo partly drawn) [Compound A81, 4-[(6-chloro-2-{[(2R,3S)-2-propyl-1-{[3-(trifluoromethyl)pyridin-2-yl]carbonyl}-3-{[5-(trifluoromethyl)thiophen-3-yl]oxy}piperidin-3-yl]carbonyl}-1,2,3,4-tetrahydroisoquinolin-1-yl)acetyl]piperazin-2-one] had a concentration for half-maximal inhibition (IC50) of 1 to 100 nM.

`CCC[C@H]1N(C(=O)c2ncccc2C(F)(F)F)CCC[C@@]1(Oc1csc(C(F)(F)F)c1)C(=O)N1CCc2cc(Cl)ccc2C1CC(=O)N1CCC(O)CC1` (stereo partly drawn) [Compound A82, 1-[(6-chloro-2-{[(2R,3S)-2-propyl-1-{[3-(trifluoromethyl)pyridin-2-yl]carbonyl}-3-{[5-(trifluoromethyl)thiophen-3-yl]oxy}piperidin-3-yl]carbonyl}-1,2,3,4-tetrahydroisoquinolin-1-yl)acetyl]piperidin-4-ol] registered an IC50 of 1 to 100 nM.

`CCC[C@H]1N(C(=O)c2ncccc2C(F)(F)F)CCC[C@@]1(Oc1csc(C(F)(F)F)c1)C(=O)N1CCc2cc(N(C)C)ccc2C1` [Compound A83, N,N-dimethyl-2-{[(2R,3S)-2-propyl-1-{[3-(trifluoromethyl)pyridin-2-yl]carbonyl}-3-{[5-(trifluoromethyl)thiophen-3-yl]oxy}piperidin-3-yl]carbonyl}-1,2,3,4-tetrahydroisoquinolin-6-amine] registered a concentration for half-maximal inhibition (IC50) of 101 to 20000 nM.

With `CCC[C@H]1N(C(=O)c2ncccc2C(F)(F)F)CCC[C@@]1(Oc1csc(C(F)(F)F)c1)C(=O)N1CCc2cc(Cl)ccc2C1CC(=O)N1CCNC(=O)C1` (stereo partly drawn) [Compound A84, 4-[(6-chloro-2-{[(2R,3S)-2-propyl-1-{[3-(trifluoromethyl)pyridin-2-yl]carbonyl}-3-{[5-(trifluoromethyl)thiophen-3-yl]oxy}piperidin-3-yl]carbonyl}-1,2,3,4-tetrahydroisoquinolin-1-yl)acetyl]piperazin-2-one], the IC50 was 1 to 100 nM.

Take `CCC[C@H]1N(C(=O)c2ncccc2C(F)(F)F)CCC[C@@]1(Oc1csc(C(F)(F)F)c1)C(=O)N1CCc2cc(Cl)ccc2C1CC(=O)N1CCC(O)CC1` (stereo partly drawn) [Compound A85, 1-[(6-chloro-2-{[(2R,3S)-2-propyl-1-{[3-(trifluoromethyl)pyridin-2-yl]carbonyl}-3-{[5-(trifluoromethyl)thiophen-3-yl]oxy}piperidin-3-yl]carbonyl}-1,2,3,4-tetrahydroisoquinolin-1-yl)acetyl]piperidin-4-ol]: the IC50 was in the range of 1 to 100 nM.

On to `CCC[C@H]1N(C(=O)c2ncccc2C(F)(F)F)CCC[C@@]1(Oc1csc(C(F)(F)F)c1)C(=O)N1CCc2c(ccc(Cl)c2Cl)C1` [Compound A86, 5,6-dichloro-2-{[(2R,3S)-2-propyl-1-{[3-(trifluoromethyl)pyridin-2-yl]carbonyl}-3-{[5-(trifluoromethyl)thiophen-3-yl]oxy}piperidin-3-yl]carbonyl}-1,2,3,4-tetrahydroisoquinoline], for which the IC50 was 101 to 20000 nM.

The molecule `CCC[C@H]1N(C(=O)c2ncccc2C(F)(F)F)CCC[C@@]1(Oc1csc(C(F)(F)F)c1)C(=O)N1CCc2cc(Cl)c(Cl)cc2C1` [Compound A87, 6,7-dichloro-2-{[(2R,3S)-2-propyl-1-{[3-(trifluoromethyl)pyridin-2-yl]carbonyl}-3-{[5-(trifluoromethyl)thiophen-3-yl]oxy}piperidin-3-yl]carbonyl}-1,2,3,4-tetrahydroisoquinoline] registered an IC50 of 101 to 20000 nM.

In the case of `CCC[C@H]1N(C(=O)c2ncccc2C(F)(F)F)CCC[C@@]1(Oc1csc(C(F)(F)F)c1)C(=O)N1CCc2cc(SC)ccc2C1` [Compound A88, 6-(methylsulfanyl)-2-{[(2R,3S)-2-propyl-1-{[3-(trifluoromethyl)pyridin-2-yl]carbonyl}-3-{[5-(trifluoromethyl)thiophen-3-yl]oxy}piperidin-3-yl]carbonyl}-1,2,3,4-tetrahydroisoquinoline], the IC50 lay within 101 to 20000 nM.

`CCC[C@H]1N(C(=O)c2ncccc2C(F)(F)F)CCC[C@@]1(Oc1csc(C(F)(F)F)c1)C(=O)N1CCc2cc(C(N)=O)ccc2C1` [Compound A89, 2-{[(2R,3S)-2-propyl-1-{[3-(trifluoromethyl)pyridin-2-yl]carbonyl}-3-{[5-(trifluoromethyl)thiophen-3-yl]oxy}piperidin-3-yl]carbonyl}-1,2,3,4-tetrahydroisoquinoline-6-carboxamide] gave a 50% inhibitory concentration (IC50) of 101 to 20000 nM.

Turning to `CCC[C@H]1N(C(=O)c2ncccc2C(F)(F)F)CCC[C@@]1(Oc1csc(C(F)(F)F)c1)C(=O)N1CCc2cc(S(C)(=O)=O)ccc2C1` [Compound A90, 6-(methylsulfonyl)-2-{[(2R,3S)-2-propyl-1-{[3-(trifluoromethyl)pyridin-2-yl]carbonyl}-3-{[5-(trifluoromethyl)thiophen-3-yl]oxy}piperidin-3-yl]carbonyl}-1,2,3,4-tetrahydroisoquinoline], the IC50 was in the range of 101 to 20000 nM.

Take `CCC[C@H]1N(C(=O)c2ncccc2C(F)(F)F)CCC[C@@]1(Oc1csc(C(F)(F)F)c1)C(=O)N1CCc2cc(Cl)ccc2[C@H]1CCC(=O)N1CCN(CCO)CC1` [Compound A91, 2-(4-{3-[(1R)-6-chloro-2-{[(2R,3S)-2-propyl-1-{[3-(trifluoromethyl)pyridin-2-yl]carbonyl}-3-{[5-(trifluoromethyl)thiophen-3-yl]oxy}piperidin-3-yl]carbonyl}-1,2,3,4-tetrahydroisoquinolin-1 - yl]propanoyl}piperazin-1-yl)ethanol]: the concentration for half-maximal inhibition (IC50) was 1 to 100 nM.

Molecule `CCC[C@H]1N(C(=O)c2ncccc2C(F)(F)F)CCC[C@@]1(Oc1csc(C(F)(F)F)c1)C(=O)N1CCc2cc(Cl)ccc2C1C(=O)N1CCN(CCO)CC1` (stereo partly drawn) [Compound A92, 2-{4-[(6-chloro-2-{[(2R,3S)-2-propyl-1-{[3-(trifluoromethyl)pyridin-2-yl]carbonyl}-3-{[5-(trifluoromethyl)thiophen-3-yl]oxy}piperidin-3-yl]carbonyl}-1,2,3,4-tetrahydroisoquinolin-1-yl)carbonyl]piperazin-1-yl}ethanol] returned a 50% inhibitory concentration (IC50) of 101 to 20000 nM.

The molecule `CCC[C@H]1N(C(=O)c2ncccc2C(F)(F)F)CCC[C@@]1(Oc1csc(C(F)(F)F)c1)C(=O)N1CCc2cc(F)ccc2C1C(=O)N1CCN(CCO)CC1` (stereo partly drawn) [Compound A93, 2-{4-[(6-fluoro-2-{[(2R,3S)-2-propyl-1-{[3-(trifluoromethyl)pyridin-2-yl]carbonyl}-3-{[5-(trifluoromethyl)thiophen-3-yl]oxy}piperidin-3-yl]carbonyl}-1,2,3,4-tetrahydroisoquinolin-1-yl)carbonyl]piperazin-1-yl}ethanol] had an IC50 of 1 to 100 nM.

`CCC[C@H]1N(C(=O)c2ncccc2C(F)(F)F)CCC[C@@]1(Oc1csc(C(F)(F)F)c1)C(=O)N1CCc2cc(F)ccc2C1C(=O)N1CCN(CCO)CC1` (stereo partly drawn) [Compound A94, 2-{4-[(6-fluoro-2-{[(2R,3S)-2-propyl-1-{[3-(trifluoromethyl)pyridin-2-yl]carbonyl}-3-{[5-(trifluoromethyl)thiophen-3-yl]oxy}piperidin-3-yl]carbonyl}-1,2,3,4-tetrahydroisoquinolin-1-yl)carbonyl]piperazin-1-yl}ethanol]: the IC50 lay in the range of 101 to 20000 nM.

The record behind these values is patent US9062071B2, “Substituted piperidines as HDM2 inhibitors” (Merck Sharp & Dohme Corp, priority 2011, dated 2015).
